In one assay the test system is Ter119+ erythroblasts. Nature of the assay: Ter119+ erythroblast expansion from murine Lin-Kit+ HSPCs (tet-shRPS19, RPL11+/lox). It counts as cell-based, mouse. The procedure: FIG. 8. NLK inhibition increases expansion of erythroid progenitors from human and murine models of DBA. Human cord blood CD34+ progenitors were transduced with lentivirus co-expressing GFP with shRNA against luciferase (shLuc), RPS19 (shRPS19) or RPL11 (shRPL11). After 36 hours cells GFP+ cells were differentiated in erythroid media in the presence or absence of 5 μM SD208 for 15 days. Cells were counted and assessed for cell surface expression of CD235. (a) The percentage of CD235+ cells was multiplied by the cell count and values were compared as a percentage of untreated controls. (b) Normalizing values relative to untreated RPS19-insufficiency progenitors facilitates direct comparison of erythropoiesis between untreated and SD208-treated cultures. (c) Approximately 3000 cells were removed from differentiating treatments at day 6 and NLK activity was assessed. Values were normalized to reflect a fold induction relative to untreated controls. (d) Lin-Kit+ hematopoietic progenitors were obtained from three mouse embryos expressing tetracycline-inducible shRNA against RPS19 at day E14.5 or three untreated mice, and thee mature RPL11^+/+ or three mature RPL11^+/lox mice treated with tamoxifen for eight weeks. Cells were grown in the presence or absence of doxycycline and/or SD208 for eight days prior to counting and assessing for ter119 surface expression. Values were expressed as a percentage relative to untreated controls (e) and directly comparing the effect of SD208 on erythropoiesis in ribosomal-insufficiency by expressing values relative to untreated ribosome-insufficient cultures (f). At day 5 approximately 3000 cells were assayed for NLK kinase assay (g). CD34+ HSPCs were isolated from three healthy control and three DBA patient mononuclear bone marrow aspirates by magnetic bead sorting and differentiated in the presence or absence of SD208 for 14 days. After counting the total cell population, the ratio of CD235+ erythroblasts was determined by flow cytometry and number of CD235+ erythroblasts calculated. This was expressed as a percentage of the average number of erythroid cells present in untreated healthy controls. (h) The direct effect of SD208 on erythroid expansion in DBA patient samples was calculated following normalization of untreated DBA patient samples as 1-fold, (i) At day five, 3000 cells from each of the differentiating cultures was analyzed for NLK activity by kinase assay and are expressed as a fold induction relative to untreated healthy controls.
FIG. 11. Metformin improves erythropoiesis in zebrafish model of DBA but not murine models. (Panel A, left portion) Murine fetal liver Kit+ progenitors expressing tetracycline-regulatable shRNA against RPS19 were cultured in the absence (grey columns) or presence (black columns) of doxycycline either alone, or treated with metformin. After 8 days, the number of ter119+ erythroblasts were calculated. (A right) RPL11+/lox mice were left untreated (grey columns) or treated (black columns) with tamoxifen for 5 weeks prior to isolation of bone marrow Lin-Kit+ progenitors. Progenitors were differentiated in the presence or absence of metformin for 8 days before assessing the number of Ter119+ erythroblasts. (Panel B) In conjunction with flow cytometry, cultures were subjected to qRT-PCR for NLK expression and (Panel C) kinase NLK kinase activity was assessed by in vitro kinase assay. […]

The subject of the next assay is human NLK 3′UTR. In words: Luciferase fused to human NLK 3′UTR in K562 cells. It counts as cell-based. The procedure: (§1) FIG. 12. NLK 3′UTR facilitates metformin-mediated NLK suppression. (Panel A) K562 cells stabling expressing luciferase alone (top portion), luciferase expressed behind a minimal promoter and the NLK proximal promoter (2nd portion), luciferase immediately upstream of the human NLK 3′UTR (3rd portion) or luciferase with the SATB1 3′UTR (bottom portion) were grown in the presence of 0, 0.5, 5.0 or 50.0 mM of metformin for 72 hrs. Cell were pelleted and either processed for luciferase assay (left portion) or western blot analysis of endogenous NLK (upper right portion) or GAPDH (lower right portion). (Panel B) Luciferase immediately upstream of the human (upper), murine (middle) and zebrafish (lower) NLK 3′UTR were transiently transfected into human K562 (left) and cultured with indicated concentrations of metformin for 72 hrs. Lysates were assessed for luciferase activity and endogenous NLK and GAPDH protein expression by Western blotting. […] Statistics: two-tailed Student's t test, significant *P<0.05
FIG. 14. Metformin-mediated upregulation of miR-26a in human progenitors suppresses NLK expression. (Panel A) Human CD34+ (upper) and murine Lin-Kit+ (lower) progenitors were differentiated for 8 days in the presence or absence of metformin and the levels of indicated miRNAs were assessed by qRT-PCR. […] After lysis, luciferase activity was determined and endogenous NLK and GAPDH protein expression was analyzed by Western blot. […]
The NLK minimal promoter (1019 5′ nucleotides) and or NLK 3′UTR (1885 3′ nucleotides) were cloned upstream, or downstream respectively, of firefly luciferase and transfected into K562 cells. Transfection efficiency was normalized by RFP expression and firefly luciferase activity determined by Luciferase Assay Reagent II (LAR II) from Dual-Luciferase® Reporter (DLR™) Assay System (Promega). Luminescence was assessed using a Synergy™ H1 hybrid multi-mode microplate reader (BioTek®). […]

A further assay relates to miRNA species. Nature of the assay: miRNA expression by qRT-PCR in differentiating murine Lin-Kit+ progenitors. It counts as cell-based, mouse. The following applies: metformin. The method, then:
FIG. 14. Metformin-mediated upregulation of miR-26a in human progenitors suppresses NLK expression. (Panel A) Human CD34+ (upper) and murine Lin-Kit+ (lower) progenitors were differentiated for 8 days in the presence or absence of metformin and the levels of indicated miRNAs were assessed by qRT-PCR. (Panel B) K562 cells stably expressing the luciferase gene coupled to the NLK 3′UTR were mock transfected, transfected with indicated miRNA mimetics, or treated with metformin, and cultured in the presence or absence of metformin for 72 hrs. After lysis, luciferase activity was determined and endogenous NLK and GAPDH protein expression was analyzed by Western blot. (Panel C) K562 cells were mock transfected, or transfected with either miR-34 or miR-26 sponges, prior to being left untreated or treated with metformin for 72 hrs. Lysed cells were subjected to luciferase assay and western blotting to examine NLK and GAPDH protein expression. […] Statistics: two-tailed Student's t test, significant *P<0.05
MessengerRNA was quantified as described (5). MicroRNA was quantified using TaqMan® Small RNA Assays (Applied Biosystems) as per manufacturer's directions and normalized to snoRNA.

The test system of the next assay is murine NLK 3′UTR. In words: Luciferase fused to murine NLK 3′UTR in K562 cells. It counts as cell-based, mouse. Particulars: transient transfection in K562, metformin 72 hrs.
For the next assay, the system named is SATB1 3′UTR. Nature of the assay: Luciferase alone or fused to SATB1 3′UTR in K562 cells. The following applies: K562, 0.5-50 mM, 72 hrs. It counts as cell-based, human. The procedure: as §1
In parallel with measuring luciferase activity, the response of endogenous NLK protein expression was monitored by Western blot analysis with a high degree of correlation.

Where “and” joins values, the source holds several entries; their conditions need not be identical. Identical values can stand only once.

Consider `Fc1ccc(Cl)cc1-c1nc(Nc2ccncc2)c2nccnc2n1` [SD208], for which the “erythropoiesis, % of controls” value in the assay with Ter119+ erythroblasts (RPL11+/lox bone marrow HSPCs of three mice, SD208, 8 days, 31.2, 26.4, 18.6% without SD208) is 57.3% and 56.8% and 50.3%. In addition, the entries for the “fold increase of erythropoiesis in response to SD208” value with Ter119+ erythroblasts (murine RPL11-insufficiency) and with Ter119+ erythroblasts (murine RPS19-insufficiency) were 2.29 fold and 3.88 fold, respectively. In addition, the “Ter119+ erythroblasts, % of populations differentiated without doxycycline” value with Ter119+ erythroblasts (tet-shRPS19 fetal liver HSPCs of three mice, doxycycline + SD208, 8 days, 24.3, 20.3, 18.5% without SD208) is 83.2% and 81.1% and 76.6%.
Take `CN(C)C(=N)N=C(N)N` [metformin]: the “reduction of luciferase activity (wild-type human NLK 3′UTR)” value with human NLK 3′UTR (K562, miRNA mimetics or metformin, 72 hrs) is recorded as 72.5%. Besides, in the assay with human NLK 3′UTR (stable K562, 50 mM metformin, 72 hrs), the “decrease of luciferase (NLK 3′UTR fusion)” value is 67.5%. Further, the “decrease of luciferase activity, human 3′UTR” value in the assay on human NLK 3′UTR (transient transfection in K562, metformin 72 hrs) worked out at 65.4%. For the same molecule, the “upregulation of miRNA species” value with miRNA species is reported as “none of the miRNA species examined demonstrated significant upregulation”. In the assay on murine NLK 3′UTR, the “decrease of luciferase activity, murine 3′UTR” value is 61.6%. Moreover, the “rescue of Ter119+ erythroblast expansion” value with Ter119+ erythroblasts (murine RPS19- or RPL11-insufficiency, metformin, 8 days) is listed as “did not rescue”. Moreover, the “metformin sensitivity of luciferase alone or fused with SATB1 3′UTR” value in the assay on SATB1 3′UTR is on record as “did not result in metformin sensitivity”.

Values taken from patent US12403132B2, “Methods of treating bone marrow failure syndromes and compositions for use in the same” (The Board of Trustees of the Leland Stanford Junior …, priority 2020, dated 2025).
